Starred links: 1 amine or outer side, 2 acyl side, 3 side chain; linkers in the order of their positions; H or OH if unused. Positions of bridges follow the written chain, without caps; N, C: chain ends. Non-standard residues stand in square brackets, D forms with d. Residues, ends and D or L forms follow the SMILES beside them. No end group written: not given here. Trp(2-yl) = O=C([C@H](Cc1c([*:3])[nH]c2ccccc12)N[*:1])[*:2]; {TAMRA} = TAMRA dye attached N-terminally via two o linkers; {Cys} = C-terminal o linker then cysteine amide; Leu(4R-OH,5-OH) = C[C@](O)(CO)C[C@H](N)C(=O)O; cisHyp = O=C(O)[C@@H]1C[C@H](O)CN1
What was measured:
Human tumor MDA-MB-231 = assay: Whole-body fluorescence imaging of nude mice bearing MDA-MB-231 tumor; assay type: in vivo, mouse; details: 100 μl of 50 μM into tail vein, 3 mm tumor; time point not stated
Procedure: To study the pHLIP distribution in vivo, covalently attached to the pHLIP near […] infrared fluorescent dye Cy5.5 was injected into mice bearing tumor and performed whole-body fluorescence imaging. Human tumor MDA-MB-231 was originated by injection of tumor cells (2×10^7 cells/flank/0.2 ml) in the right flank of adult athymic female nude mice. When the tumor reached the size of 3 mm in diameter, 100 μl of 50 μM of Cy5.5 alone or Cy5.5 covalently attached to the pHLIP was given as a single injection into vein tail. The imaging was performed immediately, after 1, 2, 4 hour and next day after 24 hours (FIGS. 9 and 10). The dye and peptide-dye accumulated in liver and kidney, the organs, which usually readily absorb any compounds. The ratios of (liver+kidney)/tumor were 5.9 and 3.6 in mice to which dye alone and pHLIP-dye were injected accumulation for mice. […] The accumulation of pHLIP-Cy5.5 in tumor was in 1.6 times higher than accumulation of dye alone. The ration of (liver+kidney)/tumor was 1.6 and 2.6 for pHLIP-Cy5.5 and Cy5.5 alone, respectively.
Human breast adenocarcinoma MDA-MB-231 (HTB-26, ATCC) cells was cultured in Leibovitz's L-15 medium supplemented with 10% fetal bovine serum, 100 units/ml penicillin, 0.1 mg/ml streptomycin, 2 mM glutamine in humidified atmosphere of 5% CO2 and 95% air at 37° C. […]

HeLa cells [1] = details: literature report; cited from earlier work
actin filaments = details: cited from earlier work
mice = assay: Toxicity study in mice, single intravenous injection; assay type: in vivo, mouse; details: single intravenous injection 4 mg/kg, female and male mice, observed 6 weeks
Procedure: Preliminary toxicity study was carried out. 100 μl of 150 μM of peptide was given as a single injection in vein tail to 4 female C3D2F1 and 4 male C57/B1 mice. The final concentration was 4 mg/kg. Mice were observed by a veterinarian the day after an injection and during the next 6 weeks.

HeLa cells [2] = assay: Cytotoxicity assay (CellTiter 96 AQueous One colorimetric); assay type: cell-based, human; details: concentrations up to 16 μM, 24 hrs, physiological conditions
Procedure: (§1) The peptide's cytotoxicity and its ability to induce membrane leakage was investigated. […] Membrane leakage was tested by incubation of HeLa cells at various concentrations of peptide (up to 10 μM) at pH 7.4 and 6.5 for 1 hr, followed by the addition of cell-impermeable agents: Phalloidin-TRITC and nuclear-staining SYTOX-Orange. […] The uptake of Phalloidin-TRITC or SYTOX-Orange was 10 times less than the uptake in cells treated with triton, which used for cell membrane permeabilization.
Cytotoxicity was tested using a standard colorimetric assay according to an established protocol provided by Promega, Inc. HeLa cells were loaded in the wells of 96 well plates (20,000 cells per well), incubated for 24 hours in DMEM supplemented with 10% FBS, 100 units/ml penicillin, 0.1 mg/ml streptomycin, 2 mM glutamine in a humidified atmosphere of 5% CO2 and 95% air at 37° C. The growth medium was then replaced with the same medium but containing 1% of FBS and increasing amounts of pHLIP (0.5, 1, 2, 4, 8 and 16 μM). After 24 hours of incubation, the solution was replaced with DMEM and a colorimetric reagent (CellTiter 96 AQueous One Solution Assay) was added for 1 hour followed by measuring absorbance at 490 nm in the plate-reader. All samples were prepared in triplicate.

HeLa cells [3] = assay: Membrane leakage assay with cell-impermeable Phalloidin-TRITC and SYTOX-Orange; assay type: cell-based, human; details: peptide up to 10 μM, 1 hr, pH 6.5 or 7.4
Procedure: as §1
HeLa cells were loaded in 96 well plates (2,000 cells per well), incubated for 24 hours in DMEM supplemented with 10% FBS, 100 units/ml penicillin, 0.1 mg/ml streptomycin, 2 mM glutamine in a humidified atmosphere of 5% CO2 and 95% air at 37° C. The growth medium was then replaced with PBS buffer containing 1 mM CaCl2 and 1 mM MgCl2 at pH7.4 or 6.5 and increasing amounts of the peptide (0.5, 2, 5 and 10 μM). After 1 hour, 2 μM of Phalloidin-TRITC and 0.5 μM of SYTOX-Orange (Molecular Probes) were added for 10 min and, then, washed with PBS buffer, pH7.4. The rhodamine fluorescence was measured at 580 nm with excitation at 544 nm by plate-reader. The cell membrane was subsequently disrupted by adding 0.5% Triton-100 and a new portion of the 2 μM of Phalloidin-TRITC and 0.5 μM of SYTOX-Orange followed by washing with PBS. The fluorescence signal was detected before and after washing, respectively. […]

HeLa cells [4] = assay: Translocation and release of Phalloidin-TRITC in HeLa cells (fluorescence microscopy of actin filaments); assay type: cell-based, human; details: pH 6.0-7.4, in the presence or absence of peptide (not conjugated)
Text: To test the ability of pHLIP to translocate peptides across the cell membrane a water soluble cyclic peptide, phalloidin, from the Amanita phalloicles mushroom was chosen. […] Fluorescent phalloidin is commonly used to label actin filaments in permealized cells. Actin filaments stained with fluorescent phalloidin have an easily recognizable filamentous pattern, which cannot be mistaken for the other cellular structures, organelles or membrane staining. Therefore the delivery of fluorescent phalloidin by pHLIP into live cells can easily be verified by fluorescence microscopy. Fluorescently labeled phalloidin (Phalloidin-TRITC) via an S-S bond to the C-terminus of pHLIP was conjugated using a bifunctional cross-linker. Cells were incubated with a pHLIP-S-S-Phalloidin-TRITC cleavable construct at different pHs and subsequently washed with cell culture medium solution, pH 7.4. […]
For the fluorescence microscopy studies, the cells were grown in 35 mm dishes with 10 mm glass bottom windows coated with collagen. […] The medium pH was measured before and after incubation. […] Fluorescent images were taken using an inverted epi-fluorescence microscope Olympus IX71. […] Each time fluorescence microscopy experiments were performed and observed the translocation of cargo by pHLIP, it was verified that the labeled cells were alive by using of dead cell marker SYTOX-Green (Molecular Probes).

HeLa cells [5] = assay: Translocation of PNA into HeLa cells (fluorescence microscopy); assay type: cell-based, human; details: PNA without pHLIP, pH 7.4 or 6.5 (data not shown)
HeLa cells [6] = assay: pH-dependent delivery of dansyl dye into live HeLa cells (fluorescence microscopy); assay type: cell-based, human; details: dye alone, without peptide
Procedure: pHLIP conjugated via a disulfide bond to dansyl dye (FIG. 3a) was tested for delivery of the dye into live HeLa cells at different pHs (FIG. 3b). The cells were incubated with the fluorescently-labeled peptide for 15 min at pH 5.5, 6.5, 7.0 or 7.4 and then washed at pH 7.4 to remove any reversibly bound peptide. […] The relative uptakes were 18%, 48%, 78% and 100% at pH7.4, 7.0, 6.5 and pH5.5, respectively.
For the fluorescence microscopy studies, the cells were grown in 35 mm dishes with 10 mm glass bottom windows coated with collagen. Cells were washed with PBS buffer containing 1 mM CaCl2 and 1 mM MgCl2 with pH 5.5, 6.5, 7.0 or 7.4 and then incubated in PBS at the experimental pH in the absence or presence of varied concentrations (0.1-7 μM) of the pHLIP-S-S-dansyl, pHLIP-dye (TexasRed or Rhodamine), pHLIP-S-S-Phalloidin-TRITC, pHLIP-Phalloidin-TRITC or pHLIP-S-S-PNA-TAMRA constructs. The medium pH was measured before and after incubation. The time of incubation was varied from 15 to 60 min. […] Fluorescent images were taken using an inverted epi-fluorescence microscope Olympus IX71. […] Each time fluorescence microscopy experiments were performed and observed the translocation of cargo by pHLIP, it was verified that the labeled cells were alive by using of dead cell marker SYTOX-Green (Molecular Probes).

CCN1\C(=C/C=C/C=C/C2=[N+](CCCCCC(=O)O)c3ccc4c(S(=O)(=O)O)cc(S(=O)(=O)O)cc4c3C2(C)C)C(C)(C)c2c1ccc1c(S(=O)(=O)[O-])cc(S(=O)(=O)O)cc21 [Cy5.5]
ratio of (liver+kidney)/tumor, first statement (Human tumor MDA-MB-231): 5.9 | ratio of (liver+kidney)/tumor, second statement (Human tumor MDA-MB-231): 2.6

C/C1=C\[C@H](C)C[C@H](C)OC(=O)C[C@H](c2ccc(O)cc2)NC(=O)[C@@H](Cc2c(Br)[nH]c3ccccc23)N(C)C(=O)[C@H](C)NC(=O)[C@@H](C)C1 [Jasplakinolide]
multinucleation of cells (reported) (HeLa cells [1]): appearance of multinucleated cells

C[C@@H]1NC(=O)[C@H](C[C@@](C)(O)CO)NC(=O)[C@@H]2Cc3c([nH]c4ccccc34)SC[C@H](NC(=O)[C@@H]([C@H](C)O)NC1=O)C(=O)N1C[C@@H](O)C[C@H]1C(=O)N[C@@H](C)C(=O)N2 [Phalloidin] (cyclo(A[dT]C[cisHyp]A[Trp(2-yl)][Leu(4R-OH,5-OH)]); thioether 3-6)
lowering of the critical concentration for actin polymerization (actin filaments): up to 30 fold

AAEQNPIYWARYADWLFTTPLLLLDLALLVDADEGTCG [pHLIP]
physiological and behavioral changes (mice): No physiological and behavioral changes | cell viability (HeLa cells [2]): does not affect cell viability | uptake of Phalloidin-TRITC or SYTOX-Orange in peptide-treated cells (HeLa cells [3]): no increase in uptake | uptake of Phalloidin-TRITC or SYTOX-Orange relative to cells treated with triton (HeLa cells [3]): 10 times less

Phalloidin-TRITC
fluorescent staining of actin filaments (HeLa cells [4]): did not give fluorescent staining of actin filaments

TAMRA-o-o-CATAGTATAAGT-o-Cys-NH2 (all peptide nucleic acid (PNA), 5' {TAMRA}, 3' {Cys}) [PNA-TAMRA]
translocation through the cell membrane (HeLa cells [5]): No translocation

dansyl
penetration of cells (HeLa cells [6]): does not penetrate cells
